The source of these data is ChEMBL document CHEMBL1795241 (Bioorg Med Chem, 2011).

Assay [1] concerns the target Lysine-specific histone demethylase 1A (Homo sapiens, UniProt O60341).
Description: Inhibition of human recombinant His-tagged full length LSD1 expressed in Escherichia coli BL21 (DE3) assessed as inactivation constant preincubated for 20 mins with substrate measured after 30 mins by AmplexRed based fluorescence quenching assay
Another assay deals with LNCaP. Description: cells. As to conditions: Homo sapiens, 144 h.

Description for LNCaP: Growth inhibition of human LNCAP cells after 6 days

One may read the Ki as the dissociation constant of the complex between target and ligand, obtained from inhibition or displacement. Read a low Ki as a stronger hold on the target. By IC50 is commonly meant the concentration that gives 50% inhibition. A higher IC50 goes with a need for much substance. In turn, `N[C@@H]1C[C@H]1c1ccccc1-c1ccccc1` returned a Ki in assay [1] of more than 100 µM. The same compound gave a half-inhibitory concentration (IC50) in the assay on LNCaP of 181 µM.
`N[C@@H]1C[C@H]1c1ccc(-c2ccccc2)cc1` registered an IC50 with LNCaP of 110 µM.
Same read-out and setting: as for `N[C@@H]1C[C@H]1c1cccc(Br)c1`, the figure is 129 µM.
Consider `N[C@@H]1C[C@H]1c1ccccc1Br`, for which the IC50 in the assay with LNCaP is 5870 µM.
Same read-out and setting: as for `N[C@@H]1C[C@H]1c1ccc(Br)cc1`, the figure is 111 µM.
In assay [1], `N[C@@H]1C[C@H]1c1cccc(-c2ccccc2)c1` showed a Ki of more than 100 µM. Moreover, in the assay on LNCaP, half-maximal inhibition (IC50) was put at 226 µM.
With `COc1ccc([C@@H]2C[C@H]2N)cc1`, in the assay on LNCaP, the IC50 came out at 1710 µM.
